Here are results for six compounds from article PMC5613062 (Investigational New Drugs, 2017).

Like-named read-outs stand apart in the source and are kept apart here. Marks after values point to notes of the source that are not given here.

Details of data set [1]: method as in product label. The settings on record: ref product label, cited from earlier work.
A short description of data set [2]: Pharmacokinetics alone and in combination, selumetinib + erlotinib arm.
Experimental: (§1) PK parameters were derived using non-compartmental analysis. Cmax and tmax were determined by visual inspection of the plasma concentration-time profiles. AUC(0–12) was calculated by the linear trapezoidal rule. Where more than one maximum occurred, the reported value was assigned to the first occurrence.
For data set [3], the system named is SW620 human colorectal cancer xenograft. On the set-up: method as in earlier work. The settings on record: ref IB, cited from earlier work.
For data set [4] the following is noted: cited from earlier work.
The conditions of data set [5]: ref Study D1532C00005, cited from earlier work.
Details of data set [6]: method as in earlier work. The settings on record: twice-daily oral dosing in SBE-CD, monkeys; no notable gastrointestinal tract or renal pathology; ref IB; cited from earlier work.
The test system of data set [7] is Calu-6 human non-small cell lung cancer xenograft. The arrangement: method as in earlier work. The conditions noted are these: AZD6244 3 mg/kg BD; AZD2171 […] QD; ref IB; cited from earlier work.
Data set [8] can be described thus: Pharmacokinetics alone and in combination, selumetinib + temsirolimus arm. The class given is in vivo, human. The settings on record: human, plasma, iv; for AUC(0-t) / AUC(0–12) / Cmax: geometric mean (% CV); for AUC(0-t): read-out: AUC(0–8); for AUC(0–12): read-out: AUC(0–12); for Cmax: read-out: Cmax; for tmax: median (range), read-out: tmax.
Experimental: as §1
Data set [9] concerns Lovo colorectal cancer xenograft. The arrangement: method as in earlier work. The settings on record: rapamycin experiment, usual monotherapy schedules, doses not given; ref IB; cited from earlier work.
Setting [10] is: NSCLC patients, single-agent erlotinib 150 mg.
Where [11] appears, read: geometric mean, QD cohorts, dosed alone, selumetinib 150 mg cohort (N = 13), erlotinib 100 mg QD.
[12] abbreviates: dosed alone, selumetinib 50 mg cohort (N = 25), temsirolimus 25 mg IV.
Setting [13] is: dosed alone, selumetinib 75 mg cohort (N = 6), temsirolimus 25 mg IV.
Where [14] appears, read: dosed in combination, selumetinib 50 mg BID (N = 22) + temsirolimus 25 mg IV.
The mark [15] stands for this setting: dosed in combination, selumetinib 75 mg BID (N = 5) + temsirolimus 25 mg IV.

As to `C#Cc1cccc(Nc2ncnc3cc(OCCOC)c(OCCOC)cc23)c1` [Erlotinib, reference compound], in data set [1] (setting [10]), the “Grade 3/4 diarrhea” value was 6%. Also, the “Grade 3/4 rash” value in data set [1] (setting [10]) is on record as 9%. The “median time to onset of diarrhea” value in data set [1] (setting [10]) was 12 days. Further, the “median time to onset of rash” value in data set [1] (setting [10]) is recorded as 8 days. For the same compound, the “patients needing dose reduction for diarrhea” value in [1] (setting [10]) is recorded as 1%. For the same compound, the “patients needing dose reduction for rash” value in [1] (setting [10]) is recorded as “Six”. The “study discontinuation due to diarrhea” value in data set [1] (setting [10]) was 1%. In addition, the “study discontinuation due to rash” value in [1] (setting [10]) is listed as 1%. The “median time to start of ILD-like symptoms after initiating therapy” value in data set [1] (range 5 days to more than 9 months) is reported as 39 days. Moreover, the Cmax in data set [2] (geometric mean (% CV), dosed alone, selumetinib 50 mg cohort (N = 14), erlotinib 100 mg QD) was 1681 (27.13) [13] ng/mL; in [2] (geometric mean (% CV), dosed in combination, selumetinib 50 mg BID (N = 12) + erlotinib 100 mg QD), 1725 (30.11) ng/mL; in [2] (geometric mean (% CV), dosed in combination, selumetinib 75 mg BID (N = 6) + erlotinib 100 mg QD), 1739 (39.86) ng/mL; in data set [2] (geometric mean, QD cohorts, dosed alone, selumetinib 100 mg cohort (N = 6), erlotinib 100 mg QD) it was 1180 ng/mL; in data set [2] (setting [11]), 1980^c ng/mL; in [2] (geometric mean, QD cohorts, in combination, selumetinib 50 mg (N = 6) + erlotinib 100 mg QD) it was 1468^d ng/mL. Further, the Cmax in [2] (human, plasma, oral, Cmax, geometric mean (% CV), dosed alone, selumetinib 75 mg cohort (N = 6), erlotinib 100 mg QD) worked out at 1420 ng/mL; in data set [2] (human, plasma, oral, Cmax, geometric mean, QD cohorts, dosed alone, selumetinib 50 mg cohort (N = 7), erlotinib 100 mg QD), 1620 ng/mL; in data set [2] (human, plasma, oral, Cmax, geometric mean, QD cohorts, in combination, selumetinib 100 mg (N = 6) + erlotinib 100 mg QD), 1430 ng/mL; in data set [2] (human, plasma, oral, Cmax, geometric mean, QD cohorts, in combination, selumetinib 150 mg (N = 12) + erlotinib 100 mg QD), 2030 ng/mL. For the same compound, the “AUC(0–8)” value in [2] (setting [11]) is recorded as 12,710^c ng•h/mL. The tmax is 1.5 h in data set [2] (human, plasma, oral); 1.5 h in [2] (human, plasma, oral, 100 mg); 2.00 (1.00–6.00)^c h in data set [2] (median (range), QD cohorts, dosed alone, selumetinib 150 mg cohort (N = 13), erlotinib 100 mg QD); 4.00 (1.00–8.00)^d h in [2] (median (range), QD cohorts, in combination, selumetinib 50 mg (N = 6) + erlotinib 100 mg QD); 3.0 (2.0–6.0) h in data set [2] (median (range), dosed alone, selumetinib 75 mg cohort (N = 6), erlotinib 100 mg QD). The AUC(0-t) in data set [2] (human, plasma, oral, 100 mg, AUC(0–8), geometric mean, QD cohorts, dosed alone, selumetinib 100 mg cohort (N = 6), erlotinib 100 mg QD) stood at 7100 ng·h/mL; in data set [2] (human, plasma, oral, 100 mg, AUC(0–12), geometric mean, QD cohorts, dosed alone, selumetinib 100 mg cohort (N = 6), erlotinib 100 mg QD), 10300 ng·h/mL; in data set [2] (human, plasma, oral, AUC(0–8), geometric mean (% CV), dosed alone, selumetinib 50 mg cohort (N = 14), erlotinib 100 mg QD), 10100 ng·h/mL; in data set [2] (human, plasma, oral, AUC(0–8), geometric mean (% CV), dosed alone, selumetinib 75 mg cohort (N = 6), erlotinib 100 mg QD), 9590 ng·h/mL; in [2] (human, plasma, oral, AUC(0–8), geometric mean (% CV), dosed in combination, selumetinib 50 mg BID (N = 12) + erlotinib 100 mg QD) it was 10400 ng·h/mL; in [2] (human, plasma, oral, AUC(0–8), geometric mean (% CV), dosed in combination, selumetinib 75 mg BID (N = 6) + erlotinib 100 mg QD) it was 10400 ng·h/mL. In addition, the AUC(0-t) in data set [2] (human, plasma, oral, AUC(0–8), geometric mean, QD cohorts, dosed alone, selumetinib 50 mg cohort (N = 7), erlotinib 100 mg QD) amounted to 9620 ng·h/mL; in data set [2] (human, plasma, oral, AUC(0–8), geometric mean, QD cohorts, in combination, selumetinib 50 mg (N = 6) + erlotinib 100 mg QD), 8600 ng·h/mL; in data set [2] (human, plasma, oral, AUC(0–8), geometric mean, QD cohorts, in combination, selumetinib 100 mg (N = 6) + erlotinib 100 mg QD), 8500 ng·h/mL; in data set [2] (human, plasma, oral, AUC(0–8), geometric mean, QD cohorts, in combination, selumetinib 150 mg (N = 12) + erlotinib 100 mg QD), 13000 ng·h/mL; in data set [2] (human, plasma, oral, AUC(0–12), geometric mean (% CV), dosed alone, selumetinib 50 mg cohort (N = 14), erlotinib 100 mg QD), 14500 ng·h/mL; in data set [2] (human, plasma, oral, AUC(0–12), geometric mean (% CV), dosed alone, selumetinib 75 mg cohort (N = 6), erlotinib 100 mg QD), 13800 ng·h/mL. Besides, the AUC(0-t) in data set [2] (human, plasma, oral, AUC(0–12), geometric mean (% CV), dosed in combination, selumetinib 50 mg BID (N = 12) + erlotinib 100 mg QD) came to 14700 ng·h/mL; in [2] (human, plasma, oral, AUC(0–12), geometric mean (% CV), dosed in combination, selumetinib 75 mg BID (N = 6) + erlotinib 100 mg QD), 14700 ng·h/mL; in data set [2] (human, plasma, oral, AUC(0–12), geometric mean, QD cohorts, dosed alone, selumetinib 50 mg cohort (N = 7), erlotinib 100 mg QD), 14000 ng·h/mL; in data set [2] (human, plasma, oral, AUC(0–12), geometric mean, QD cohorts, dosed alone, selumetinib 150 mg cohort (N = 13), erlotinib 100 mg QD), 18300 ng·h/mL; in data set [2] (human, plasma, oral, AUC(0–12), geometric mean, QD cohorts, in combination, selumetinib 100 mg (N = 6) + erlotinib 100 mg QD), 12000 ng·h/mL; in data set [2] (human, plasma, oral, AUC(0–12), geometric mean, QD cohorts, in combination, selumetinib 150 mg (N = 12) + erlotinib 100 mg QD), 18600 ng·h/mL. Further, in [2] (selumetinib + erlotinib arm), the “PK parameters when administered alone and in combination” value is recorded as “similar”.
On to `Cn1nnc2c(C(N)=O)ncn2c1=O` [Temozolamide], for which the “Tumor growth inhibition as a % of control” value in data set [3] (temozolamide experiment, usual monotherapy schedules, doses not given) is on record as 15 % of control.
Take `CCc1c2c(nc3ccc(OC(=O)N4CCC(N5CCCCC5)CC4)cc13)-c1cc3c(c(=O)n1C2)COC(=O)[C@]3(O)CC` [Irinotecan]: in data set [3] (AZD6244 25 mg/kg BD, irinotecan 25 mg/kg once weekly, docetaxel 15 mg/kg once weekly), the “Tumor growth inhibition as a % of control” value is on record as 67 % of control.
Consider `Cn1cnc2c(F)c(Nc3ccc(Br)cc3Cl)c(C(=O)NOCCO)cc21` [AZD6244 Hyd-Sulfate], for which the “toxicity findings, 6-month study” value in [4] (male mice dosed 8–15 weeks at the high dose level, ref IB) was “dilation of the corpus spongiosum”. In addition, the tissue mineralization result in [4] (mice dosed for up to one month, ref IB) is on record as “multiple tissues (cornea, kidney, liver, myocardium, skeletal muscle, glandular stomach)”. In addition, the “toxicity findings at non-tolerated dose levels” value in [4] (mouse, in vivo, po) is “gastrointestinal tract toxicity and hematopoietic atrophy”. For the same compound, the “DLT in the first 22 days of dosing” value in data set [5] (75 mg BD cohort, one DLT) is recorded as “CTCAE Grade 3 fatigue”. The “DLTs in the first 22 days of dosing” value in data set [5] (100mg BD cohort, two DLTs) was “pleural effusion and rash (both CTC AE Grade 3)”. Also, in [5] (capsule formulation), the maximum tolerated dose is 75 mg BD. In data set [6], the toxicity findings result is “fluid and/or red colored feces”.
In the case of `COc1cc2c(Oc3ccc4[nH]c(C)cc4c3F)ncnc2cc1OCCCN1CCCC1` [AZD2171, reference compound], in data set [7], the “Tumor growth inhibition as a % of control” value is 49.6 % of control.
As for `CO[C@H]1C[C@@H]2CC[C@@H](C)[C@@](O)(O2)C(=O)C(=O)N2CCCC[C@H]2C(=O)O[C@H]([C@H](C)C[C@@H]2CC[C@@H](O)[C@H](OC)C2)CC(=O)[C@H](C)/C=C(\C)[C@@H](O)[C@@H](OC)C(=O)[C@H](C)C[C@H](C)/C=C/C=C/C=C/1C` [Sirolimus], in [8] (setting [12]), the AUC(0-t) was 341 ng·h/mL, the AUC(0–12) was found to be 514 ng·h/mL, the Cmax is 58.5 ng/mL and the tmax was 1.5 h. Also, in data set [8] (setting [13]), the AUC(0-t) stood at 266 ng·h/mL, the AUC(0–12) is 382 ng·h/mL, the Cmax turned out to be 49.5 ng/mL and the tmax stood at 2 h. In data set [8] (setting [14]), the AUC(0-t) turned out to be 394 ng·h/mL, the AUC(0–12) stood at 584 ng·h/mL, the Cmax was 67 ng/mL and the tmax is 1.5 h. In [8] (setting [15]), the AUC(0-t) was determined as 292 ng·h/mL, the AUC(0–12) amounted to 360 ng·h/mL, the Cmax was 51.2 ng/mL and the tmax is 2 h. Besides, the “Tumor growth inhibition as a % of control” value in [9] is 38 % of control.
